Source: patent US9273009B2, “Tetrahydronaphthalene derivatives” (Concert Pharmaceuticals Inc., priority 2010, dated 2016)
Where a name gives a salt, the structure may show the parent alone. Read-outs that look alike come from different tables or passages of the source.

Key:
[1] = Metabolic stability in human liver microsomes (in vitro t1/2); assay type: in vitro ADME; details: for half-life: human, human liver microsomes
Experimental: Human liver microsomes (20 mg/mL) were obtained from Xenotech, LLC (Lenexa, Kans.). β-nicotinamide adenine dinucleotide phosphate, reduced form (NADPH), magnesium chloride (MgCl2), and dimethyl sulfoxide (DMSO) were purchased from Sigma-Aldrich.
7.5 mM stock solutions of test compounds were prepared in DMSO. The 7.5 mM stock solutions were diluted to 12.5-50 μM in acetonitrile (ACN). The 20 mg/mL human liver microsomes were diluted to 0.625 mg/mL in 0.1 M potassium phosphate buffer, pH 7.4, containing 3 mM MgCl2. The diluted microsomes were added to wells of a 96-well deep-well polypropylene plate in triplicate. A 10 μL aliquot of the 12.5-50 μM test compound was added to the microsomes and the mixture was pre-warmed for 10 minutes. Reactions were initiated by addition of pre-warmed NADPH solution. The final reaction volume was 0.5 mL and contained 0.5 mg/mL human liver microsomes, 0.25-1.0 μM test compound, and 2 mM NADPH in 0.1 M potassium phosphate buffer, pH 7.4, and 3 mM MgCl2. The reaction mixtures were incubated at 37° C., and 50 μL aliquots were removed at 0, 5, 10, 20, and 30 minutes and added to shallow-well 96-well plates which contained 50 μL of ice-cold ACN with internal standard to stop the reactions. The plates were stored at 4° C. for 20 minutes after which 100 μL of water was added to the wells of the plate before centrifugation to pellet precipitated proteins. Supernatants were transferred to another 96-well plate and analyzed for amounts of parent remaining by LC-MS/MS using an Applied Bio-systems API 4000 mass spectrometer. The same procedure was followed for the non-deuterated counterpart of the compound of Formula B, Formula A, Formula I, Formula B-I, Formula C, or Formula E and the positive control, 7-ethoxycoumarin (1.0 μM). Testing was done in triplicate.
The in vitro t1/2s for test compounds were calculated from the slopes of the linear regression of % parent remaining (ln) vs incubation time relationship. in vitro t1/2=0.693/k k=−[slope of linear regression of % parent remaining(ln) vs incubation time]

[2] = intravenous, healthy male volunteers, cited from earlier work
[3] = relative to mibefradil; cited from earlier work
[4] = pH 7.4, Table 8a, 0.5 mg/mL HLM, 2 mM NADPH, 37° C., read-out: t1/2 Experiment 1
[5] = pH 7.4, Table 8a, 0.5 mg/mL HLM, 2 mM NADPH, 37° C., read-out: t1/2 Experiment 2
[6] = pH 7.4, Table 8a, average of Experiments 1 and 2, read-out: t1/2 Ave
[7] = pH 7.4, Table 8b, 0.5 mg/mL HLM, 2 mM NADPH, 37° C., read-out: t1/2 Experiment 1
[8] = pH 7.4, Table 8b, 0.5 mg/mL HLM, 2 mM NADPH, 37° C., read-out: t1/2 Experiment 2
[9] = pH 7.4, Table 8b, average of Experiments 1 and 2, read-out: t1/2 Ave

For [2H]C1([2H])c2cc(F)ccc2[C@H](C(C)C)[C@](CCN(C)CCCc2nc3ccccc3[nH]2)(OC(=O)COC)C1([2H])[2H] [Compound 500, (1S,2S)-2-(2-((3-(1H-Benzo[d]imidazol-2-yl)propyl)(methyl)amino)ethyl)-3,3,4,4-tetradeutero-6-fluoro-1-isopropyl-1,2,3,4-tetrahydronaphthalen-2-yl 2-methoxyacetate], the “half life (t1/2) shorter than that of mibefradil” value ([1]; HLM, from Table 8a) was “approximately 44%”, the half-life [1, 4] was 4.61 min and the half-life [1, 5] was 4.98 min. For the same compound, the half-life [1, 6] was 4.79 min.

[2H]C([2H])([2H])N(CC[C@]1(OC(=O)COC)[C@@H](C(C)C)c2ccc(F)cc2C([2H])([2H])C1([2H])[2H])C([2H])([2H])C([2H])([2H])C([2H])([2H])c1nc2ccccc2[nH]1 [Compound 703a, (1S,2S)-2-(2-((3-(1H-Benzo[d]imidazol-2-yl)-1,1,2,2,3,3-hexadeuteropropyl)(trideuteromethyl)-amino)ethyl)-3,3,4,4-tetradeutero-6-fluoro-1-isopropyl-1,2,3,4-tetrahydronaphthalen-2-yl 2-methoxyacetate] gave a half-life [1, 4] of 7.17 min, a half-life [1, 5] of 7.72 min and a half-life [1, 6] of 7.45 min.

Compound [2H]C1([2H])c2cc(F)ccc2[C@H](C(C)C)[C@](CCN(C)CCCc2nc3ccccc3[nH]2)(OC(=O)C2CC2)C1([2H])[2H] [Compound 704a, (1S,2S)-2-(2-((3-(1H-Benzo[d]imidazol-2-yl)propyl)(methyl)amino)ethyl)-3,3,4,4-tetradeutero-6-fluoro-1-isopropyl-1,2,3,4-tetrahydronaphthalen-2-yl cyclopropanecarboxylate] has a half-life [1, 7] of 6.16 min, a half-life [1, 8] of 6.6 min and a half-life [1, 9] of 6.38 min.

[2H]C([2H])([2H])N(CC[C@]1(OC(=O)C2CC2)[C@@H](C(C)C)c2ccc(F)cc2C([2H])([2H])C1([2H])[2H])C([2H])([2H])C([2H])([2H])C([2H])([2H])c1nc2ccccc2[nH]1 [Compound 707a, (1S,2S)-2-(2-((3-(1H-Benzo[d]imidazol-2-yl)-1,1,2,2,3,3-hexadeuteropropyl)(trideuteromethyl)-amino)ethyl)-3,3,4,4-tetradeutero-6-fluoro-1-isopropyl-1,2,3,4-tetrahydronaphthalen-2-yl cyclopropanecarboxylate] showed a half-life [1, 7] of 7.27 min, a half-life [1, 8] of 7.03 min and a half-life [1, 9] of 7.15 min.

In the case of COCC(=O)O[C@]1(CCN(C)CCCc2nc3ccccc3[nH]2)CCc2cc(F)ccc2[C@@H]1C(C)C [Mibefradil, (1S,2S)-2-(2-((3-(2-benzimidazolylpropyl)methylamino)ethyl)-6-fluoro-1,2,3,4-tetrahydro-1-isopropyl-2-naphthyl methoxyacetatedihydrochloride, reference compound], the half-life [1, 4] was 8.49 min, the half-life [1, 5] was 8.55 min and the half-life [1, 6] was 8.52 min. For the same compound, the bilirubin ([2]; in all cases) was “dose-dependent increase” and the plasma haptoglobin ([2]; in two cases) was “severe decrease”.

CC(C)[C@H]1c2ccc(F)cc2CC[C@@]1(CCN(C)CCCc1nc2ccccc2[nH]1)OC(=O)C1CC1 [NNC 55-0396, reference compound] showed a half-life [1, 7] of 6.58 min, a half-life [1, 8] of 6.55 min and a half-life [1, 9] of 6.56 min.

In the case of CC(C)C1c2ccc(F)cc2CCC1(O)CCN(C)CCCc1nc2ccccc2[nH]1 (stereo not shown) [Ro 40-5966], the “pharmacologic effect of the metabolite as share of that of the parent” value [3] is listed as “approximately 10%”.
